The record followed here is ChEMBL document CHEMBL1139227, “Discovery of a series of 6,7-dimethoxy-4-pyrrolidylquinazoline PDE10A inhibitors” (J Med Chem, 2007).

Experiment [1] is described as follows: Inhibition of rat recombinant PDE10A transfected in Sf9 cells by SPA.
The target of experiment [2] is cGMP-inhibited 3',5'-cyclic phosphodiesterase 3B (Homo sapiens, UniProt Q13370). As to the kind of experiment: Inhibition of human recombinant PDE3B transfected in Sf9 cells by SPA.
Experiment [3] concerns the target cGMP-inhibited 3',5'-cyclic phosphodiesterase 3A (Homo sapiens, UniProt Q14432). As to the kind of experiment: Inhibition of human recombinant PDE3A transfected in Sf9 cells by SPA.
For experiment [4], the system named is Mus musculus. The experiment in a line: Increase of cGMP level in CD1 mouse striatal tissue at 10 mg/kg, sc. It counts as functional, organism-based. Further details: dose 10 mg/kg. The conditions noted are these: Striatum.
The test system of experiment [5] is Mus musculus. The experiment in a line: Increase of phosphorylated CREB level in CD1 mice striatal tissue at 32 mg/kg, sc after 30 mins. It is filed as functional, organism-based. Further details: dose 32 mg/kg. The settings on record: Striatum.
Experiment [6] deals with Mus musculus. As to the kind of experiment: Increase of cGMP level in CD1 mouse striatal tissue at 32 mg/kg, sc. It counts as functional, organism-based. The arrangement: dose 32 mg/kg. The settings on record: Striatum.
Experiment [7] has as its system Mus musculus. The experiment in a line: Increase of phosphorylated CREB level in CD1 mice striatal tissue at 32 mg/kg, sc after 90 mins. It is filed as functional, organism-based. The arrangement: dose 32 mg/kg. The settings on record: Striatum.

Molecules are shown by their SMILES. Active and inactive are the calls of the source. The calls are words filed in the database; no cut-off is given here.

Chain of cGMP-inhibited 3',5'-cyclic phosphodiesterase 3A (Q14432 whole entry): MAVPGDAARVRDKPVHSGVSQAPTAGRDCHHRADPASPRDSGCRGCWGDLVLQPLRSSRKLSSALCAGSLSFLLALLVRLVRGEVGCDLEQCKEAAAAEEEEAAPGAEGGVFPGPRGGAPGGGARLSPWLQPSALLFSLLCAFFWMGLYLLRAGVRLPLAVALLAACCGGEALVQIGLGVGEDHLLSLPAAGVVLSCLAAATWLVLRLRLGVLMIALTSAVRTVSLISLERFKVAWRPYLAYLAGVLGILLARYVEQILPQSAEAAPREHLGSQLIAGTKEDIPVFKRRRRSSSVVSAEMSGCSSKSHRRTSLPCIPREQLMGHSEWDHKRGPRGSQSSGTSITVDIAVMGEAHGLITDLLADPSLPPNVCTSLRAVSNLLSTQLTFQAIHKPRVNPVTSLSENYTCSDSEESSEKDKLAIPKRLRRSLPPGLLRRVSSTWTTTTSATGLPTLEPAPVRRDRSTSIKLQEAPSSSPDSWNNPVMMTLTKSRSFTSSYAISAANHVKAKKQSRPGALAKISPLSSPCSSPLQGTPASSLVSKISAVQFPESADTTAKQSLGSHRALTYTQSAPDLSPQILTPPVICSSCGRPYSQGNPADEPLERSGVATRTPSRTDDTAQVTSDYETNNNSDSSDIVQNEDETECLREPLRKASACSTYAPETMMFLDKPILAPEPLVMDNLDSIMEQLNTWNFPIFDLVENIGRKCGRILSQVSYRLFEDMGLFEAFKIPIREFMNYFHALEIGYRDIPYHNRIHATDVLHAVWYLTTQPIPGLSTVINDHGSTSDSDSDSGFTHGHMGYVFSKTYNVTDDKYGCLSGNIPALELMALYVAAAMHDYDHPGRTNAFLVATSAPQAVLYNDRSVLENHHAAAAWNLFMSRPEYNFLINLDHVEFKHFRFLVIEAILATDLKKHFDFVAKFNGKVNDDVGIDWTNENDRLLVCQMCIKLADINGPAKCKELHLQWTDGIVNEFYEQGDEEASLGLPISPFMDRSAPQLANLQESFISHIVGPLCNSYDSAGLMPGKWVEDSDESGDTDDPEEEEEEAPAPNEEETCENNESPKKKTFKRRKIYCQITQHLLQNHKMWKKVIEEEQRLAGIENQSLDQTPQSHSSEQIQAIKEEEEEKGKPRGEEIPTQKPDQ
Chain of cGMP-inhibited 3',5'-cyclic phosphodiesterase 3B (Q13370 whole entry): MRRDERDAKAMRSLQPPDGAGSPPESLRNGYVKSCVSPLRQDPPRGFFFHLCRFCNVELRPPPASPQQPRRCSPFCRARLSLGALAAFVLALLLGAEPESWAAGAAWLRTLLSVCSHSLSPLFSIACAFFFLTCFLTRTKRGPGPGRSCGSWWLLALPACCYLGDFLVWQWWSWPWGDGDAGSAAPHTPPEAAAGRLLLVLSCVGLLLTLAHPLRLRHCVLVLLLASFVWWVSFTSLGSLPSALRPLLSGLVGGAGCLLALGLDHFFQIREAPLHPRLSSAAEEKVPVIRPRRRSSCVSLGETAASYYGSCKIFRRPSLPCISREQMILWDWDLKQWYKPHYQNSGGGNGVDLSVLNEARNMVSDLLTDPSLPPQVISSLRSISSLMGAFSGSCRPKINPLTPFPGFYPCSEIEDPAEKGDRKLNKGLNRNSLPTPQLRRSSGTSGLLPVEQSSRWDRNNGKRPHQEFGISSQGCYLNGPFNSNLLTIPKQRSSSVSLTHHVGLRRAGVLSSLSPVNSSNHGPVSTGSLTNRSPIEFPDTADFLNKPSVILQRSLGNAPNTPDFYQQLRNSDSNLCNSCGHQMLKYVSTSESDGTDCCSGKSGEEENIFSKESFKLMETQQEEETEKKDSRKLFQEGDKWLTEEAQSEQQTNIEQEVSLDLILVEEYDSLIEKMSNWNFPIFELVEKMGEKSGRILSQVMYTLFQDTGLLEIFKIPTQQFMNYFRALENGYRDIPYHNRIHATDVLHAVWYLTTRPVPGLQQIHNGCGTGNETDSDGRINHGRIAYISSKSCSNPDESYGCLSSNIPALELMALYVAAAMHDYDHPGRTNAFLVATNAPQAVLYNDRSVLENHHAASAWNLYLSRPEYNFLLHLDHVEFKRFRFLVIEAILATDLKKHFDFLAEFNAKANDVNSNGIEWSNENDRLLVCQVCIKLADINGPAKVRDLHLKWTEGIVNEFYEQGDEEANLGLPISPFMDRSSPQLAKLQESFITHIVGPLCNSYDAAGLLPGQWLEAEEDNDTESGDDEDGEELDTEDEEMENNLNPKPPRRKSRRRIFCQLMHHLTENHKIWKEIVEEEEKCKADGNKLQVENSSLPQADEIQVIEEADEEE

With `COc1cc2ncnc(N3CC[C@@H](Oc4ccc5ncccc5c4)C3)c2cc1OC`, the Ki stood at 12 nM in experiment [1], 201 nM in experiment [2] and 104 nM in experiment [3].

In the case of `COc1cc2ncnc(N3CC[C@@H](Oc4ccncc4)C3)c2cc1OC`, the Ki came out at 112 nM in experiment [1], 685 nM in experiment [2] and 226 nM in experiment [3].

As for `COc1cc2ncnc(N3CC[C@H](Oc4ccccc4OC)C3)c2cc1OC`, the Ki was 641 nM in experiment [1], over 100 nM in experiment [2] and over 100 nM in experiment [3].

Take `COc1cc2ncnc(N3CC[C@@H](Oc4cccnc4)C3)c2cc1OC`: the inhibition constant (Ki) stood at 128 nM in experiment [1], 748 nM in experiment [2] and 302 nM in experiment [3].

As to `COc1cc2ncnc(N3CC[C@@H](Oc4ccc(C#N)cc4)C3)c2cc1OC`, the inhibition constant Ki came to 471 nM in experiment [2] and 214 nM in experiment [3].

Regarding `COc1cc2ncnc(N3CC[C@@H](Oc4ccccc4C#N)C3)c2cc1OC`, the figures for the Ki in experiment [1], in experiment [2] and in experiment [3] were 130 nM, under 100 nM and under 100 nM, respectively.

Consider `COc1cc2ncnc(N3CC[C@@H](Oc4cccc(-c5ccccc5)c4)C3)c2cc1OC`, for which the Ki in experiment [1] was 136 nM; in experiment [2], 280 nM; in experiment [3], 271 nM.

For `CCOc1cccc(O[C@@H]2CCN(c3ncnc4cc(OC)c(OC)cc34)C2)c1`, the Ki in experiment [1] was 94 nM; in experiment [2], 88 nM; in experiment [3], 61 nM.

With `CCOc1ccc(O[C@@H]2CCN(c3ncnc4cc(OC)c(OC)cc34)C2)cc1`, the inhibition constant Ki in experiment [1] was found to be 54 nM; in experiment [2], 328 nM; in experiment [3] it was 161 nM.

As for `COc1cc2ncnc(N3CC[C@@H](Oc4cnc5ccccc5n4)C3)c2cc1OC`, in experiment [1], the concentration for half-maximal inhibition (IC50) turned out to be 6 nM. For the same molecule, the Ki was 273 nM in experiment [2] and 211 nM in experiment [3]. The result in the experiment on Mus musculus [4], in the experiment with Mus musculus [5], in the experiment on Mus musculus [6] and in the experiment with Mus musculus [7] was Active.

For `COc1ccc(O[C@@H]2CCN(c3ncnc4cc(OC)c(OC)cc34)C2)cc1OC`, the Ki is 67 nM in experiment [1], 260 nM in experiment [2] and 121 nM in experiment [3].

Take `COc1cc2ncnc(N3CC[C@@H](Oc4ccc5ccccc5c4)C3)c2cc1OC`: the IC50 in experiment [1] amounted to 14 nM. For the same molecule, the values for the inhibitory constant (Ki) in experiment [2] and in experiment [3] were 463 nM and 283 nM, respectively.

In the case of `COc1cc2ncnc(N3CC[C@@H](Oc4cccc(C(C)C)c4)C3)c2cc1OC`, the Ki in experiment [1] worked out at 171 nM; in experiment [2] it was 474 nM; in experiment [3], 370 nM.

`COc1ccc(Cc2nccc3cc(OC)c(OC)cc23)cc1OC` [PAPAVERINE]: the Ki in experiment [1] came out at 17 nM.

As to `COc1cc2ncnc(N3CCc4ccc(S(=O)(=O)N5CCN(C)CC5)cc4C3)c2cc1OC`, the Ki in experiment [1] turned out to be 25 nM.

For `COc1cc2ncnc(N3CC[C@@H](Oc4ncc(Cl)cn4)C3)c2cc1OC`, the Ki came out at 44 nM in experiment [1], 332 nM in experiment [2] and 162 nM in experiment [3].

Consider `COc1cc2ncnc(N3CC[C@@H](Oc4ccccn4)C3)c2cc1OC`, for which the Ki stood at 123 nM in experiment [1], 207 nM in experiment [2] and 77 nM in experiment [3].

On to `COc1cc2ncnc(N3CC[C@@H](Oc4ccccc4C(F)(F)F)C3)c2cc1OC`, for which the Ki in experiment [1] was 811 nM; in experiment [2], over 100 nM; in experiment [3], under 100 nM.

For `COc1cc2ncnc(N3CC[C@@H](Oc4cccc5ccccc45)C3)c2cc1OC`, the Ki in experiment [1] is 210 nM; in experiment [2], 56 nM; in experiment [3], 48 nM.

Consider `COc1cc2ncnc(N3CC[C@@H](Oc4ccc5cccnc5c4)C3)c2cc1OC`, for which the Ki in experiment [1] worked out at 12 nM; in experiment [2], 240 nM; in experiment [3], 209 nM.

Regarding `COc1cc2ncnc(N3CC[C@@H](Oc4ccc5nc(C)ccc5c4)C3)c2cc1OC`, the Ki in experiment [1] worked out at 18 nM; in experiment [2], 223 nM; in experiment [3] it was 152 nM.

In the case of `COc1ccc2ccc(O[C@@H]3CCN(c4ncnc5cc(OC)c(OC)cc45)C3)cc2c1`, the Ki turned out to be 17 nM in experiment [1], 305 nM in experiment [2] and 273 nM in experiment [3].

`COc1cc2ncnc(N3CC[C@@H](Oc4ccccc4OC)C3)c2cc1OC`: the values for the Ki in experiment [1], in experiment [2] and in experiment [3] were 240 nM, over 100 nM and under 100 nM, respectively.

As to `COc1cc2ncnc(N3CC[C@@H](Oc4ccc5c(c4)CCC5)C3)c2cc1OC`, the Ki is 68 nM in experiment [1], 237 nM in experiment [2] and 141 nM in experiment [3].

In the case of `COc1cc2ncnc(N3CC[C@@H](Oc4ccccc4Cl)C3)c2cc1OC`, the Ki in experiment [1] is 198 nM; in experiment [2], under 100 nM; in experiment [3], under 100 nM.

In the case of `COc1cc2ncnc(N3CC[C@@H](Oc4ccc(OC(F)(F)F)cc4)C3)c2cc1OC`, the values for the Ki in experiment [1], in experiment [2] and in experiment [3] were 185 nM, 1820 nM and 739 nM, respectively.

For `COc1cc2ncnc(N3CC[C@@H](Oc4ccc(C(C)(C)C)cc4)C3)c2cc1OC`, the figures for the Ki in experiment [1], in experiment [2] and in experiment [3] were 100 nM, 1890 nM and 720 nM, respectively.

`COc1cc2ncnc(N3CC[C@@H](Oc4ccccc4C)C3)c2cc1OC`: the inhibition constant (Ki) was 326 nM in experiment [1], under 100 nM in experiment [2] and under 100 nM in experiment [3].

For `COc1cc2ncnc(N3CC[C@@H](Oc4cc5ccccc5cn4)C3)c2cc1OC`, the Ki in experiment [1] came to 19 nM; in experiment [2], 196 nM; in experiment [3] it was 151 nM.

Consider `COc1ccc2cc(O[C@@H]3CCN(c4ncnc5cc(OC)c(OC)cc45)C3)ccc2c1`, for which the inhibitory constant (Ki) in experiment [1] came to 18 nM; in experiment [2], 280 nM; in experiment [3], 199 nM.
